# According to US4719235A, “Methods and compositions for treating viral infection” (Kern; Gerald N., priority 1985, dated 1988):
# Where two headings read alike, the source gives them in different places.
# Key:
# [1] = tested on: HSV-2; test: Treatment of MA-104 cells infected with HSV-2; type: cell-based, Herpes Simplex Type 2; conditions: 0.02 mg/ml for one hour at 37° C., 6 and 24 hours after infection
# Method: MA-104 cells were washed free of growth medium and exposed to appropriately diluted HSV-2 for one hour at 37° C. At 6 and 24 hours after infection, the MA-104 cells were exposed to a solution containing 0.02 mg of docusate sodium per ml of solution for one hour at 37° C. The docusate sodium solution was poured off, agar overlay added, and the exposed cells incubated for 3 days at 37° C. to provide for plaque development.
# [2] = Cytotoxicity in solutions free of serum, HeLa; type: cell-based, human; set-up: key to HeLa (toxicity): 0: Cells had normal morphology; 4+: >90% of cells showed CTE; conditions: human, hela cells, 0.2 mg/ml, 37° C., read-out: HeLa (toxicity)
# Method: (§1) The cell lines used to evaluate cytotoxicity of docusate sodium were MA-104 derived from monkey kidneys, HeLa derived from human uterine carcinoma and primary fibroblasts from human foreskin. The cells were grown to confluency in 60×15 mm dishes. The cell monolayers were washed free of growth medium and 5 ml of serum-less growth medium containing docusate sodium at various concentrations was added. The curtures were incubated 24 hours at 37° C. and the cells then examined microscopically for cytotoxic effects (CTE). Controls were done in the same manner except that they were not exposed to docusate sodium.
# [3] = tested on: HeLa; test: Cytotoxicity in solutions free of serum, HeLa; type: cell-based, human; set-up: key to HeLa (toxicity): 0: Cells had normal morphology; 4+: >90% of cells showed CTE; conditions: 24 hours, 37° C.
# Method: as §1
# [4] = tested on: Rotavirus strain SA-11; test: Titration of Rotavirus strain SA-11 after contact with docusate sodium solutions; type: cell-based; conditions: for plaque forming units: 0.2 mg/ml; for pfu/ml: 1 mg/ml
# [5] = tested on: Adenovirus; test: Pretreatment of HeLa cells prior to exposure to Adenovirus; type: cell-based; conditions: 0.125 mg/ml in 10% fetal calf serum MEM
# Method: HeLa cells were washed free of growth medium and the cells were exposed to 0.125 mg/ml docusate sodium in 10% fetal calf serum MEM for 15 minutes. The docusate sodium solution was poured off, the cells rinsed with phosphate buffered saline and then exposed to appropriately diluted Adenovirus. A control solution prepared as above except for exposure to docusate sodium was also provided. After one hour at 37° C., the cells were overlayed with agar and incubated for 3 days at 37° C. to allow plaques to develop.
# [6] = tested on: Coxsackievirus B-5; test: Titration of Coxsackievirus B-5 after contact with docusate sodium solutions; type: cell-based; conditions: 0.2 mg/ml
# [7] = tested on: HSV-II; test: Duration of effect of pretreatment of MA-104 cells prior to exposure to HSV-II; type: cell-based, Herpes Simplex Type 2; conditions: 0.02 mg/ml; for inhibition at 20 µg/mL: Human alphaherpesvirus 2, MA104, read-out: % Reduction In Infectivity
# Method: MA-104 cell monolayers were washed twice with Earle's basal salt solution (EBSS) and a 0.02 mg/ml solution of docusate sodium was added to each culture dish. The culture dishes were incubated at 37° C. for one hour and the docusate sodium solutions poured off. The monolayers were then washed twice with EBSS and at appropriate time intervals infected with HSV-II. After the addition of overlay agar, the cultures were incubated at 37° C. for 3 days, stained with crystal voilet, and the plaques counted. Control cultures were treated in a similar manner except for exposure to docusate sodium.
# [8] = Cytotoxicity in solutions free of serum, foreskin fibroblasts; type: cell-based, human; set-up: key to Foreskin (toxicity): 0: Cells had normal morphology; 4+: >90% of cells showed CTE; conditions: human, foreskin fibroblasts, 0.2 mg/ml, 37° C., read-out: Foreskin (toxicity)
# Method: as §1
# [9] = tested on: primary fibroblasts from human foreskin; test: as above; type: cell-based; set-up: key to Foreskin (toxicity): 0: Cells had normal morphology; 4+: >90% of cells showed CTE; conditions: 24 hours, 37° C.
# Method: as §1
# [10] = Cytotoxicity in solutions containing serum, foreskin fibroblasts; type: cell-based, human; set-up: key to Foreskin (Cytotoxic effect): 0: Cells have normal morphology; 4+: >90% of cells showed CTE.; ±c: less than 10% of cells showed CTE; conditions: human, foreskin fibroblasts, 2% fetal calf serum, 37° C., read-out: Foreskin (Cytotoxic effect)
# Method: (§2) The cells were grown to confluency in 60×15 mm dishes. The cell monolayers were washed free of growth medium and 5 ml of serum-less growth medium containing docusate sodium at various concentrations was added. The curtures were incubated 24 hours at 37° C. and the cells then examined microscopically for cytotoxic effects (CTE). Controls were done in the same manner except that they were not exposed to docusate sodium.
# (§3) The same procedure that was used for Example 17 was used for this Example except that the medium used for growing the cells contained 2% by volume fetal calf serum.
# [11] = tested on: primary fibroblasts from human foreskin; test: as above; type: cell-based; set-up: key to Foreskin (Cytotoxic effect): 0: Cells have normal morphology; 4+: >90% of cells showed CTE.; ±c: less than 10% of cells showed CTE; conditions: 0.01 mg/ml, 2% fetal calf serum, 24 hours, 37° C.
# Method: as §2, §3
# [12] = tested on: Adenovirus; test: Titration of Adenovirus after contact with docusate sodium solutions (HeLa cells); type: cell-based; conditions: 0.2 mg/ml
# [13] = Cytotoxicity in solutions free of serum, selected cell lines (overall conclusion); type: cell-based; conditions: serum-free medium, read-out: concentration toxic to the cells
# Method: as §1
# [14] = tested on: Respiratory Syncytial Virus; test: Pretreatment of HeLa cells prior to exposure to Respiratory Syncytial Virus; type: cell-based
# Method: The same procedure was used for this example as was used for Example 21 except that HeLa cells were substituted for MA-104 cells, the docusate sodium solution contained 0.1 mg/ml of docusate sodium, and Respiratory Syncytial Virus was substantial for Rotavirus. Three experiments were run.
# Virus infectivity was determined by cytopathic effects (CPE).
# [15] = tested on: selected cell lines (MA-104, HeLa, Foreskin)
# [16] = cited from earlier work
# [17] = Cytotoxicity in solutions containing serum, HeLa; type: cell-based, human; set-up: key to HeLa (Cytotoxic effect): 0: Cells have normal morphology; 4+: >90% of cells showed CTE.; ±c: less than 10% of cells showed CTE; conditions: human, hela cells, 2% fetal calf serum, 37° C., read-out: HeLa (Cytotoxic effect)
# Method: as §2, §3
# [18] = tested on: HeLa; test: Cytotoxicity in solutions containing serum, HeLa; type: cell-based, human; set-up: key to HeLa (Cytotoxic effect): 0: Cells have normal morphology; 4+: >90% of cells showed CTE.; ±c: less than 10% of cells showed CTE; conditions: 0.02 mg/ml, 2% fetal calf serum, 24 hours, 37° C.
# Method: as §2, §3
# [19] = tested on: Rotavirus; test: microbe, parasite or virus in culture; type: cell-based; conditions: MA104, 0.25 h, pretreatment 15 minutes, read-out: % decrease in pfu
smiles,measurement,setting,value
"CCCCC(CC)COC(=O)CC(C(=O)OCC(CC)CCCC)S(=O)(=O)O (stereo not shown) [docusate sodium, 1,4-bis(2-ethylhexyl)sodium sulfosuccinate]",inactivation of HSV-2 in cells infected prior to contact (conclusion),[1],not effective in inactivating HSV-2 virus in cells infected with HSV-2
same,cytotoxicity at 24 h,[2],> 90%
same,HeLa (toxicity),[3]; 0.01 mg/ml,0
same,HeLa (toxicity),[3]; 0.05 mg/ml,4+ (>90% of cells showed CTE.)
same,HeLa (toxicity),[3]; 0.1 mg/ml,4+ (>90% of cells showed CTE.)
same,plaque forming units,"[4]; exposure time 0 minutes (control 17,000)","16,000 pfu/ml"
same,plaque forming units,[4]; exposure time 15 minutes,"19,000 pfu/ml"
same,plaque forming units,"[4]; exposure time 60 minutes (control 13,000)","27,000 pfu/ml"
same,pfu/ml,"[4]; exposure time 0 minutes (control 46,500)","45,000 pfu/ml"
same,pfu/ml,"[4]; exposure time 60 minutes (control 49,000)","51,000 pfu/ml"
same,inactivation of Rotavirus SA-11 (conclusion),[4]; 0.2 and 1 mg/ml,did not inactivate Rotavirus SA-11
same,plaque forming units/ml,"[5]; pretreatment 15 minutes (control 180,000)","175,000 pfu/ml"
same,inhibition at 125 µg/mL,"[5]; unidentified adenovirus, HeLa, 0.25 h, pretreatment 15 minutes, read-out: % decrease in pfu",3%
same,inactivation of Coxsackievirus B-5 (conclusion),[6],did not inactivate Coxsackievirus B-5
same,pfu/ml,"[6]; exposure time 0 minutes (control 30,000)","12,500 pfu/ml"
same,pfu/ml,[6]; exposure time 15 minutes,"23,000 pfu/ml"
same,pfu/ml,"[6]; exposure time 60 minutes (control 25,500)","30,000 pfu/ml"
same,pfu/ml,"[7]; infection 0 hours after exposure (control 270,000)","53,000 pfu/ml"
same,pfu/ml,"[7]; infection 2 hours after exposure (control 30,000)","14,000 pfu/ml"
same,pfu/ml,"[7]; infection 24 hours after exposure (control 69,000)","69,000 pfu/ml"
same,pfu/ml,"[7]; infection 72 hours after exposure (control 69,000)","58,000 pfu/ml"
same,duration of anti-herpes effect of pretreatment (conclusion),[7]; one hour pretreatment,transitory
same,inhibition at 20 µg/mL,[7]; infection 0 hours after exposure,81%
same,inhibition at 20 µg/mL,[7]; infection 2 hours after exposure,54%
same,inhibition at 20 µg/mL,[7]; infection 24 hours after exposure,0%
same,inhibition at 20 µg/mL,[7]; infection 72 hours after exposure,16%
same,cytotoxicity at 24 h,[8],> 90%
same,Foreskin (toxicity),[9]; 0.01 mg/ml,0
same,Foreskin (toxicity),[9]; 0.05 mg/ml,4+ (>90% of cells showed CTE.)
same,Foreskin (toxicity),[9]; 0.1 mg/ml,4+ (>90% of cells showed CTE.)
same,cytotoxicity at 24 h,[10]; 0.02 mg/ml,< 10%
same,cytotoxicity at 24 h,[10]; 0.03 mg/ml,> 90%
same,cytotoxicity at 24 h,[10]; 0.04 mg/ml,> 90%
same,Foreskin (Cytotoxic effect),[11],0
same,effect on Adenovirus replication (conclusion),[12]; contact time 60 minutes,did not have a significant effect on Adenovirus replication
same,pfu/ml,"[12]; exposure time 60 minutes (control 180,000)","150,000 pfu/ml"
same,killing at 200 µg/mL,"[12]; unidentified adenovirus, HeLa, 1 h, exposure time 60 minutes, read-out: % Inactivation",17%
same,MCC at 24 h,[13],10 to 50 µg/mL
same,Presence of CPE,[14],- and +
same,protection of HeLa cells against RSV infection (conclusion),[14],confers partial protection on HeLa cells against RSV infection
same,effect of serum on cytotoxicity (conclusion),[15],presence of serum reduced the cytotoxicity
same,relative sensitivity of cell lines (conclusion),[15],MA-104 cells were less sensitive to docusate sodium than were HeLa and foreskin fibroblast cells
same,solubility in alcohol,[16]; alcohol,freely soluble in alcohol
same,solubility in water,[16]; water,slowly soluble in water
same,cytotoxicity at 24 h,[17]; 0.03 mg/ml,< 10%
same,cytotoxicity at 24 h,[17]; 0.04 mg/ml,> 90%
same,HeLa (Cytotoxic effect),[18],0
same,inhibition at 40 µg/mL,[19]; 0.04 mg/ml,10%
same,inhibition at 50 µg/mL,[19]; 0.05 mg/ml,70%
